Consider 14 compounds from patent publication US11981643B1, “Oxoimidazolidine derivatives as anti-tubercular agents” (priority 2023, dated 2024).

In brackets after ≈: the same amount, converted by molar mass. Like-named read-outs stand apart in the source and are kept apart here.

The subject of data set [1] is Mycobacterium tuberculosis H37Rv. The experiment in a line: Resazurin Microplate Assay (REMA), anti-tubercular activity, H37Rv strain. The conditions noted are these: 192 h, read-out: Anti-tubercular activity against Mycobacterium tuberculosis, H37Rv (minimum inhibitory concentration, MIC). In kind it is cell-based.
Setting [2] is: H37Rv strain, ATCC: 25177, REMA, 8 days incubation at 37° C.

Consider `CN1C(=Cc2ccc([N+](=O)[O-])cc2)C(=O)N/C1=N\C(=S)Nc1cccc(Cl)c1` (stereo in doubt) [Compound 4q, 1-(3-Chlorophenyl)-3-[(2E,5Z)-1-methyl-5-(4-nitrobenzylidene)-4-oxoimidazolidin-2-ylidene]thiourea], for which the melting point lay within 166 to 168 °C. The MIC in data set [1] (setting [2]) was determined as 8 µg/mL (≈ 19.2 µM).

Compound `Cc1ccc(/C=C2/C(=O)N/C(=N\C(=O)Nc3ccccc3F)N2C)o1` registered a melting point of 196 to 198 °C.

Consider `Cc1ccc(/C=C2/C(=O)N/C(=N\C(=O)Nc3cccc(F)c3)N2C)o1`, for which the melting point lay in the range of 188 to 190 °C.

The compound `Cc1ccc(/C=C2/C(=O)N/C(=N\C(=S)Nc3ccc(F)cc3)N2C)o1` displayed a melting point of 146 to 148 °C.

As for `CN1/C(=C\c2ccc([N+](=O)[O-])cc2)C(=O)N/C1=N\C(=O)Nc1ccccc1F`, the melting point is 150 to 152 °C.

In turn, `CN1C(=Cc2ccc(-c3ccccc3[N+](=O)[O-])o2)C(=O)N/C1=N\C(=S)Nc1ccc(F)cc1` (stereo in doubt) [Compound 4v, 1-(4-Fluorophenyl)-3-[(2E,5Z)-1-methyl-5-{[5-(2-nitrophenyl)furan-2-yl]methylidene}-4-oxoimidazolidin-2-ylidene]thiourea] returned a melting point of 158 to 160 °C. Further, the MIC in data set [1] (setting [2]) came out at 16 µg/mL (≈ 34.4 µM).

`CN1/C(=C\c2ccc(Br)o2)C(=O)N/C1=N\C(=O)Nc1cccc(F)c1` [Compound 4g, 1-{(2E,5Z)-5-[(5-Bromofuran-2-yl)methylidene]-1-methyl-4-oxoimidazolidin-2-ylidene}-3-(3-fluorophenyl)urea] had a melting point of 196 to 198 °C. Further, the MIC in data set [1] (H37RV) came to 8 µg/mL (≈ 19.6 µM).

In turn, `CN1/C(=C\c2ccc([N+](=O)[O-])cc2)C(=O)N/C1=N\C(=O)Nc1cccc(F)c1` had a melting point of 144 to 146 °C.

Compound `Cc1ccc(/C=C2/C(=O)N/C(=N\C(=S)Nc3cccc(Cl)c3)N2C)o1` gave a melting point of 158 to 160 °C.

Turning to `Cc1ccc(/C=C2/C(=O)N/C(=N\C(=O)Nc3ccc(F)cc3)N2C)o1`, the melting point is 186 to 188 °C.

In turn, `CN1/C(=C\c2ccc(Br)o2)C(=O)N/C1=N\C(=S)Nc1cccc(Cl)c1` gave a melting point of 140 to 142 °C.

`CN1/C(=C\c2ccc([N+](=O)[O-])cc2)C(=O)N/C1=N\C(=O)Nc1ccc(F)cc1` returned a melting point of 156 to 158 °C.

For the compound `CN1/C(=C\c2ccc(-c3ccccc3[N+](=O)[O-])o2)C(=O)N/C1=N\C(=O)Nc1ccc(Cl)cc1Cl`, the melting point fell in the range of 206 to 208 °C.

Regarding `CN1/C(=C\c2ccc(Br)o2)C(=O)N/C1=N\C(=O)Nc1ccc(Cl)cc1Cl`, the melting point is 198 to 200 °C.
